Data as given in US20240336627A1, “NOVEL COMPOUNDS FOR THE DIAGNOSIS OF TDP-43 PROTEINOPATHIES” (AC IMMUNE SA, priority 2021, published 2024).
Marks after values point to notes of the source that are not given here.

Biological target: T1, Human brain derived TDP-43 aggregates (Homo sapiens, UniProt Q13148)
T1 construct: A sample of brain tissue (frontal or temporal cortex) was homogenized; from tissue; host or cells: sarkosyl-insoluble fraction of human FTD brain (frontal or temporal cortex)
Test: Micro-radiobinding competition assay on human FTD sarkosyl-insoluble brain extracts
Type: binding
Settings: for Human brain derived TDP-43 aggregates Mean % competition at 250 nM: 250 nM test compound; for Human brain derived TDP-43 aggregates Mean % competition at 2 μM: 2 μM test compound; for Ki: 0.24 nM to 2 μM test compound
Experimental: Human brain extracts were prepared as described in Laferriere et al., 2019, Nature Neurosc. A sample of brain tissue (frontal or temporal cortex) was homogenized at 1:4 (w/v) ratio in the homogenization-solubilization (HS) buffer at 4° C. using tissue homogenizer (Precellys) with CKmix homogenization tubes. The following sequence was used for homogenization: 3 cycles of 30 seconds at 5000 rpm (with 15 seconds pause between each cycle). Homogenized samples were aliquoted and stored at −80° C. in 1.5 mL low protein binding tubes.
Brain homogenates were thawed on ice and resuspended in HS buffer to obtain a final concentration of 2% sarkosyl, 1 unit/μL Benzonase and 1 mM MgCl2. The samples were then incubated at 37° C. under constant shaking at 600 rpm on a thermomixer for 45 minutes (min). The supernatants were collected in a new tube (sarkosyl-soluble fraction, S1). The pellet was resuspended in 1000 μL of myelin floatation buffer and centrifuged at 20,000 g for 60 min at 4° C. The supernatant was carefully removed to remove all the floating lipids. This step was repeated if all the lipids could not be removed in a single step. The pellet was subsequently washed with Phosphate-Buffered Saline (PBS) and centrifuged for 30 min at 20,000 g at 4° C. The final pellet was resuspended in 200 μL PBS and stored at −80° C. (sarkosyl-insoluble fraction). The samples were analyzed by immunoblotting in denaturing conditions.
Human FTD sarkosyl-insoluble brain extracts were spotted onto microarray slides. The slides were incubated with [^3H]-Compound 52 or [^3H]-Compound 16 ligands at 75 nM or 40 nM, respectively, and the example compounds (non-radiolabelled) at 2 μM and 250 nM. In some cases, the non-radiolabelled example compounds were further assessed for a range of different concentrations, varying from 0.24 nM to 2 μM for determination of the inhibition constant (Ki). After incubation, slides were washed and scanned by a real-time autoradiography system (BeaQuant, ai4R). Quantification of the signal was performed by using the Beamage image analysis software (ai4R). Non-specific signal was determined with an excess of non-radiolabelled compound 52 or compound 16 (2 μM) and specific binding was calculated by subtracting the non-specific signal from the total signal. Competition was calculated as percent, where 0% was defined as the specific binding in the presence of vehicle and 100% as the values obtained in the presence of excess of the non-radiolabelled compound 52 or compound 16. Ki values were calculated in GraphPad Prism7 by applying a nonlinear regression curve fit using a one site, specific binding model. Measurements were performed with at least two technical replicates in the two-concentration competition experiment and with one technical replicate in the experiments including a range of concentrations. For compounds tested in more than one experiment, the mean of the replicates or Ki values in independent experiments is reported.

[1] = radioligand [3H]-Compound 52 (75 nM)
[2] = radioligand [3H]-Compound 16 (40 nM)

T1 sequence (Q13148 whole entry): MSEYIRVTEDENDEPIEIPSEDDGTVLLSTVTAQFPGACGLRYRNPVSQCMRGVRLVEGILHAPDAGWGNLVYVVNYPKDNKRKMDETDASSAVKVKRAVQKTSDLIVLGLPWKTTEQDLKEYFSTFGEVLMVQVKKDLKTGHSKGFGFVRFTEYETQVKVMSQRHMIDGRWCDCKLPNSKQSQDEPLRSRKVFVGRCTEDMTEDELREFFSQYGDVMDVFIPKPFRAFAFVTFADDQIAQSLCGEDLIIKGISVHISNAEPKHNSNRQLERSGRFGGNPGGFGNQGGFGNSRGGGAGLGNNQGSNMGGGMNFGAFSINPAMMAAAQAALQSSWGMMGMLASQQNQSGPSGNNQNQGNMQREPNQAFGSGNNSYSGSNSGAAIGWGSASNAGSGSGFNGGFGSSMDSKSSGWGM

Row | Human brain derived TDP-43 aggregates Mean % competition at 250 nM [1] | Human brain derived TDP-43 aggregates Mean % competition at 2 μM [1] | Ki [1] [nM] | Human brain derived TDP-43 aggregates Mean % competition at 250 nM [2] | Human brain derived TDP-43 aggregates Mean % competition at 2 μM [2] | Ki [2] [nM] | Compound
1 | 55.9ª % | 75.7ª % | 86.6 |  |  |  | N#Cc1ccc(N2CCc3nc(-c4ccc(N5CCC[C@@H](F)C5)nc4)sc3C2=O)cc1N [Example 30]
2 | 52.1ª % | 81.0ª % | 144 |  |  |  | Nc1cc(N2CCc3nc(-c4ccc(N5CCC[C@H](F)C5)nc4)sc3C2=O)ccc1F [Example 33]
3 | 64.2ª % | 80.3ª % |  |  |  |  | N#Cc1ccc(N2CCc3nc(-c4ccc(N5CC[C@H](F)C5)nc4)sc3C2=O)cc1N [Example 22]
4 | 76.9ª % | 92.1ª % | 54.2 |  |  |  | N#Cc1ccc(N2CCc3nc(-c4ccc(N5CC[C@@H](F)C5)nc4)sc3C2=O)cc1N [Example 19]
5 | 35.5ª % | 76.1ª % | 100 |  |  |  | N#Cc1cc(N2CCc3nc(-c4ccc(N5CC[C@H](F)C5)nc4)sc3C2=O)ccc1N [Example 23]
6 | 62.2ª % | 91.2ª % | 73.1 |  |  |  | Nc1cc(N2CCc3nc(-c4ccc(N5CCCC5)nc4)sc3C2=O)ccc1F [Example 3, 5-(3-amino-4-fluorophenyl)-2-(6-(pyrrolidin-1-yl)pyridin-3-yl)-6,7-dihydrothiazolo[5,4-c]pyridin-4(5H)-one]
7 | 67.6ª % | 79.7ª % | 101 |  |  |  | N#Cc1ccc(N2CCc3nc(-c4ccc(N5CCC[C@H](F)C5)nc4)sc3C2=O)cc1N [Example 31]
8 | 44.0ª % | 80.9ª % |  |  |  |  | N#Cc1cc(N2CCc3nc(-c4ccc(N5CCC[C@H](F)C5)nc4)sc3C2=O)ccc1N [Example 32]
9 | 66.6ª % | 83.0ª % |  |  |  |  | Nc1cc(N2CCc3nc(-c4ccc(N5CC[C@@H](F)C5)nc4)sc3C2=O)ccc1F [Example 25]
10 | 40.8ª % | 70.8ª % | 9.9 |  |  |  | Nc1cc(N2CCc3nc(-c4ccc(N5CC[C@H](F)C5)nc4)sc3C2=O)ccc1F [Example 26, (S)-5-(3-amino-4-fluorophenyl)-2-(6-(3-fluoropyrrolidin-1-yl)pyridin-3-yl)-6,7-dihydrothiazolo[5,4-c]pyridin-4(5H)-one]

Further lines, the compound ahead of its results:

Row | Compound | Human brain derived TDP-43 aggregates Mean % competition at 250 nM [1] | Human brain derived TDP-43 aggregates Mean % competition at 2 μM [1] | Ki [1] [nM] | Human brain derived TDP-43 aggregates Mean % competition at 250 nM [2] | Human brain derived TDP-43 aggregates Mean % competition at 2 μM [2] | Ki [2] [nM]
11 | Nc1cc(N2CCc3nc(-c4ccc(N5CCCC5)cn4)sc3C2=O)ccc1F [Example 34] | 72.8ª % | 67.9ª % |  |  |  | 
12 | Cn1cc(N2CCc3nc(-c4ccc(N5CC[C@@H](F)C5)nc4)sc3C2=O)cn1 [Example 1, (R)-2-(6-(3-fluoropyrrolidin-1-yl)pyridin-3-yl)-5-(1-methyl-1H-pyrazol-4-yl)-6,7-dihydrothiazolo[5,4-c]pyridin-4(5H)-one] |  |  | 18.7 |  |  | 
13 | N#Cc1c(N)cccc1N1CCc2nc(-c3ccc(N4CC[C@H](F)C4)nc3)sc2C1=O [Example 21, (S)-2-amino-6-(2-(6-(3-fluoropyrrolidin-1-yl)pyridin-3-yl)-4-oxo-6,7-dihydrothiazolo[5,4-c]pyridin-5(4H)-yl)benzonitrile] | 22.7ª % | 40.1ª % |  |  |  | 
14 | Cn1cc(N2CCc3nc(-c4cnc(N5CCC[C@H](F)C5)nc4)sc3C2=O)cn1 [Example 45] | 47.0ª % | 64.3ª % |  |  |  | 
15 | Cn1cc(N2CCc3nc(-c4ccc(N5CC[C@@H](F)C5)cc4)sc3C2=O)cn1 [Example 27] | 54.3ª % | 80.2ª % | 128 |  |  | 
16 | N#Cc1c(N)cccc1N1CCc2nc(-c3cnc(N4CCC(F)CC4)cn3)sc2C1=O [Example 39] |  |  |  | 64.5^c % | 77.4^c % | 148
17 | Nc1cc(N2CCc3nc(-c4cnc(N5CC[C@H](F)C5)cn4)sc3C2=O)ccc1F [Example 37] | 54.3ª % | 74.9ª % | 79.9 |  |  | 
18 | Cn1cc(N2CCc3nc(-c4ccc(N5CC[C@H](F)C5)cc4)sc3C2=O)cn1 [Example 28] | 56.5ª % | 79.7ª % | 111 |  |  | 
19 | N#Cc1cc(N2CCc3nc(-c4ccc(N5CCCC5)nc4)sc3C2=O)ccc1N [Example 18] | 76.2ª % | 102.0ª % | 68.6 |  |  | 
20 | Nc1cccc(N2CCc3nc(-c4cnc(N5CC[C@@H](F)C5)cn4)sc3C2=O)c1F [Example 38] | 46.3ª % | 74.0ª % | 114 |  |  | 
21 | Nc1cc(N2CCc3nc(-c4cnc(N5CC[C@@H](F)C5)nc4)sc3C2=O)ccc1F [Example 46] | 62.5ª % | 85.9ª % | 93 |  |  | 
22 | Nc1ccc(N2CCc3nc(-c4cnc(N5CCCC5)nc4)sc3C2=O)cc1F [Example 43] | 45.0ª % | 69.4ª % |  |  |  | 
23 | Nc1cc(N2CCc3nc(-c4cnc(N5CCC(F)CC5)nc4)sc3C2=O)ccc1F [Example 49] |  |  |  | 63.1^c % | 65.5^c % | 117
24 | Nc1cccc(N2CCc3nc(-c4cnc(N5CC[C@H](F)C5)nc4)sc3C2=O)c1F [Example 47] | 50.2ª % | 81.7ª % | 152 |  |  | 
25 | Nc1cccc(N2CCc3nc(-c4ccc(N5CCCC5)nc4)sc3C2=O)c1F [Example 14] | 44.0ª % | 85.7ª % | 58.8 |  |  | 
26 | Nc1cc(N2CCc3nc(-c4cnc(N5CC[C@@H](F)C5)cn4)sc3C2=O)ccc1F [Example 35] | 53.0ª % | 74.6ª % |  |  |  | 
27 | N#Cc1c(N)cccc1N1CCc2nc(-c3ccc(N4CCCC4)nc3)sc2C1=O [Example 16, 2-amino-6-(4-oxo-2-(6-(pyrrolidin-1-yl)pyridin-3-yl)-6,7-dihydrothiazolo[5,4-c]pyridin-5(4H)-yl)benzonitrile] | 46.0ª % | 83.2ª % | 81 |  |  | 
28 | Nc1cccc(N2CCc3nc(-c4cnc(N5CCC[C@H](F)C5)nc4)sc3C2=O)c1F [Example 48] | 46.9ª % | 77.9ª % | 73.6 |  |  | 
29 | N#Cc1c(N)cccc1N1CCc2nc(-c3cnc(N4CC[C@H](F)C4)cn3)sc2C1=O [Example 41] |  |  |  | 47.2^c % | 67.7^c % | 
30 | Nc1cc(N2CCc3nc(-c4cnc(N5CCCC5)nc4)sc3C2=O)ccc1F [Example 42] | 43.8ª % | 79.6ª % |  |  |  | 
31 | Cn1cc(N2CCc3nc(-c4ccc(N5CC[C@H](F)C5)nc4)sc3C2=O)cn1 [Example 13] | 69.4ª % | 105.0ª % |  |  |  | 
32 | Nc1cccc(N2CCc3nc(-c4cnc(N5CCC[C@@H](F)C5)nc4)sc3C2=O)c1F [Example 50] |  |  |  | 52.8^c % | 63.4^c % | 
